From PubChem BioAssay (NCI) come the findings set out here.

Several values for one entry are separate records, joined by “and”; a condition that tells them apart may be missing. Identical values can stand only once.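 Protocol summary: plate cells (96-well), add compound at 5 concentrations, incubate 48 h, interpolate endpoints linearly. GI50: concentration for 50% inhibition of growth. TGI: concentration producing complete growth inhibition.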

Some test systems named below: A549 NSCLC; ACHN renal; DU-145 prostate; HCC-2998 colon; HCT-15 colon; MCF7 breast; MOLT-4 leukemia; OVCAR-5 ovarian; SK-MEL-28 melanoma; SK-MEL-2 melanoma.
What all share (experiment): NCI-60 cell line screen, 48 h

As for `COc1ccc(-c2cc(/C=C3\C(=O)Nc4ccc(Cl)cc43)[nH]n2)cc1`, the GI50 in the assay on A549 NSCLC was 6.54 µM; in the assay on ACHN renal, 5.71 µM; in the assay with DU-145 prostate it was 3.89 µM; in the assay on HCC-2998 colon, 9.4 µM; in the assay with HCT-15 colon, 2.8 µM; in the assay on MCF7 breast, 2.43 µM. For the same molecule, the GI50 was 5.13 µM in the assay with MOLT-4 leukemia, 8.67 µM in the assay with OVCAR-5 ovarian and 6.6 µM with SK-MEL-28 melanoma. Further, the TGI was found to be 18.5 µM in the assay with A549 NSCLC; 18.4 µM with ACHN renal; 13.6 µM with DU-145 prostate; 24.2 µM in the assay on HCC-2998 colon; 14.2 µM in the assay with HCT-15 colon; 11.8 µM with MCF7 breast. Also, the TGI in the assay with MOLT-4 leukemia was 25.6 µM; in the assay on OVCAR-5 ovarian, 21.1 µM; with SK-MEL-28 melanoma, 19.5 µM.

Turning to `CN1CCCN(C)C1c1cc([N+](=O)[O-])ccc1O`, the TGI was above 100 µM with A549 NSCLC; 64.3 µM in the assay on ACHN renal; above 100 µM in the assay with DU-145 prostate; above 100 µM with HCT-15 colon; 63.3 µM in the assay on MCF7 breast; 59.8 µM in the assay on MOLT-4 leukemia. In addition, the TGI was above 100 µM with OVCAR-5 ovarian, above 100 µM in the assay on SK-MEL-2 melanoma and 82.3 µM in the assay on SK-MEL-28 melanoma.

`CC(C)(C)NCc1cc(C(C)(C)C)cc(-c2ccc(Cl)cc2)c1O`: the TGI worked out at 32.4 µM with A549 NSCLC; 26.7 µM in the assay with ACHN renal; 24.7 µM in the assay with DU-145 prostate; 29.6 µM in the assay with HCC-2998 colon; 25.7 µM in the assay on HCT-15 colon; 32.7 µM in the assay on MCF7 breast. Besides, the TGI with OVCAR-5 ovarian was found to be 28.2 µM; with SK-MEL-2 melanoma, 37.9 µM; in the assay with SK-MEL-28 melanoma, 28.2 µM.

For `COc1cc2c3c(n(CCCNCCN)c(=O)c2cc1OC)-c1cc2c(cc1C3=O)OCO2`, the GI50 was 1.61 µM in the assay with A549 NSCLC; 0.304 µM in the assay on ACHN renal; 0.556 µM with DU-145 prostate; 0.616 µM in the assay with MCF7 breast; below 0.0445 µM in the assay on MOLT-4 leukemia; 1.39 µM in the assay on OVCAR-5 ovarian. Besides, the GI50 was 2.63 µM in the assay with SK-MEL-2 melanoma and 0.822 µM in the assay with SK-MEL-28 melanoma. Besides, the TGI was 13.7 µM in the assay with A549 NSCLC; 1.01 µM with ACHN renal; 3.41 µM with DU-145 prostate; above 40.3 µM in the assay with HCT-15 colon; above 100 µM with MCF7 breast; 0.081 µM with MOLT-4 leukemia. Also, the figures for the TGI with OVCAR-5 ovarian, in the assay with SK-MEL-2 melanoma and in the assay with SK-MEL-28 melanoma were 10.5 µM, 8.67 µM and 2.95 µM, respectively.

Consider `COc1cccc(NC(=O)CC(=O)N2N=C(N(CCC#N)c3ccccc3C)CC2c2ccccc2)c1` (stereo unspecified), for which the TGI in the assay on A549 NSCLC, in the assay with ACHN renal, with HCC-2998 colon, in the assay with HCT-15 colon, in the assay with MOLT-4 leukemia and in the assay with OVCAR-5 ovarian was above 100 µM throughout. For the same molecule, the TGI with SK-MEL-2 melanoma and in the assay with SK-MEL-28 melanoma was above 100 µM throughout.

As for `C(CCC[Te][Te]CCCCCCOC1CCCCO1)CCOC1CCCCO1` (stereo unspecified), the TGI in the assay with A549 NSCLC turned out to be 41.5 µM; in the assay on ACHN renal it was 22.7 µM; in the assay with HCC-2998 colon, 27.9 µM; in the assay with HCT-15 colon, 60.6 µM; in the assay with MOLT-4 leukemia, 46.6 µM; with OVCAR-5 ovarian, 33.4 µM. Further, the TGI in the assay on SK-MEL-2 melanoma amounted to 28.3 µM; in the assay with SK-MEL-28 melanoma, 27.4 µM.

For the molecule `O=C(Nc1nc2ccccc2n1Cc1ccccc1)NC12CC3CC(CC(C3)C1)C2`, the TGI with A549 NSCLC, in the assay with ACHN renal, in the assay on HCC-2998 colon, in the assay on HCT-15 colon, with MOLT-4 leukemia and with OVCAR-5 ovarian was above 100 µM throughout. Moreover, the TGI in the assay on SK-MEL-2 melanoma and with SK-MEL-28 melanoma was above 100 µM each time.

With `NC(=O)c1cc(Br)cc(C2CCCCC2)c1O`, the GI50 in the assay with A549 NSCLC was 13.4 µM; with ACHN renal, 12.9 µM; with DU-145 prostate, 12.3 µM; with HCT-15 colon it was 13.7 µM; with MCF7 breast it was 15.8 µM; with MOLT-4 leukemia, 13.9 µM. Also, the GI50 in the assay on OVCAR-5 ovarian was 13.9 µM; in the assay on SK-MEL-2 melanoma, 15.8 µM; with SK-MEL-28 melanoma, 14 µM. The TGI with A549 NSCLC is 27.1 µM; in the assay with ACHN renal, 25.5 µM; in the assay on DU-145 prostate it was 24.9 µM; with HCT-15 colon it was 30.7 µM; in the assay on MCF7 breast, 30.8 µM; in the assay with MOLT-4 leukemia, 34.5 µM. Moreover, the TGI in the assay with OVCAR-5 ovarian turned out to be 27.8 µM; in the assay on SK-MEL-2 melanoma, 29.7 µM; with SK-MEL-28 melanoma, 27.3 µM.

`COc1cc2c3c(c1)c1cc(OC)c(OC)cc1c[n+]3CC2`: the GI50 is 76.7 µM in the assay on A549 NSCLC; above 100 µM with ACHN renal; 40.3 µM in the assay with DU-145 prostate; above 100 µM with HCT-15 colon; 21.3 µM in the assay with MCF7 breast; 5.16 µM in the assay on MOLT-4 leukemia. In addition, the GI50 in the assay with OVCAR-5 ovarian is above 100 µM; in the assay on SK-MEL-2 melanoma, 16.7 µM; with SK-MEL-28 melanoma it was 32.8 µM. Besides, the TGI was above 100 µM in the assay with A549 NSCLC; above 100 µM in the assay on ACHN renal; 50 µM and > 100 µM with DU-145 prostate; above 100 µM in the assay on HCT-15 colon; 50 µM and > 100 µM in the assay with MCF7 breast; 50 µM and > 100 µM with MOLT-4 leukemia. For the same molecule, the TGI with OVCAR-5 ovarian is above 100 µM; with SK-MEL-2 melanoma, 50 µM and 71.3 µM; in the assay with SK-MEL-28 melanoma it was 50 µM and > 100 µM.

For the molecule `NNc1nc2ccccc2c(=O)n1NC(=O)C(=O)Nc1cccc(C(F)(F)F)c1`, the TGI in the assay on A549 NSCLC, with ACHN renal, in the assay on HCC-2998 colon, with HCT-15 colon, in the assay with MCF7 breast and in the assay on MOLT-4 leukemia was above 100 µM each time. In addition, the TGI with OVCAR-5 ovarian, in the assay on SK-MEL-2 melanoma and with SK-MEL-28 melanoma was above 100 µM throughout.

With `CC(=O)OCCOCNC(=S)N/N=C(\C)c1cnc2ccccc2n1`, the TGI was above 100 µM in the assay on A549 NSCLC; above 100 µM with ACHN renal; above 100 µM in the assay with HCC-2998 colon; above 100 µM in the assay on HCT-15 colon; above 100 µM in the assay on MOLT-4 leukemia; 61.3 µM in the assay on OVCAR-5 ovarian. For the same molecule, the TGI with SK-MEL-2 melanoma and in the assay with SK-MEL-28 melanoma was above 100 µM each time.

For `CCCCCC(=O)c1ccc2[nH]c3c(C)cc([N+](=O)[O-])c(C)c3c2c1`, the TGI with A549 NSCLC, in the assay on ACHN renal, in the assay on HCC-2998 colon, in the assay with HCT-15 colon, in the assay on MOLT-4 leukemia and in the assay with OVCAR-5 ovarian was above 100 µM in each case. Moreover, the TGI with SK-MEL-2 melanoma and with SK-MEL-28 melanoma was above 100 µM throughout.

For `O=C(Nc1ccc(Cl)cc1)c1ccc(NC2=C(Cl)C(=O)N(Cc3ccccc3)C2=O)cc1`, the GI50 with A549 NSCLC was 16.3 µM; in the assay on ACHN renal it was 15.7 µM; in the assay on DU-145 prostate, 14.4 µM; with HCT-15 colon it was 24.4 µM; in the assay with MCF7 breast, 15.3 µM; in the assay with MOLT-4 leukemia, 3.26 µM. The GI50 is 14.1 µM in the assay with OVCAR-5 ovarian, 14.2 µM in the assay on SK-MEL-2 melanoma and 17.4 µM in the assay with SK-MEL-28 melanoma. Besides, the TGI with A549 NSCLC was 39.9 µM; in the assay on ACHN renal, 35.3 µM; in the assay on DU-145 prostate, 38.6 µM; in the assay with HCT-15 colon, above 100 µM; with MCF7 breast, 33.8 µM; in the assay on MOLT-4 leukemia, 44.8 µM. The TGI in the assay on OVCAR-5 ovarian was found to be 28.1 µM; with SK-MEL-2 melanoma it was 40.4 µM; in the assay with SK-MEL-28 melanoma it was 37.9 µM.

For the molecule `O=S(=O)(NCC1CCC(CNc2ccc(Cl)cc2)CC1)c1ccc(-c2ccccc2)cc1` (stereo unspecified), the GI50 in the assay with A549 NSCLC is 9.21 µM; in the assay with ACHN renal, 18.3 µM; in the assay on DU-145 prostate it was above 50 µM; with HCT-15 colon it was above 50 µM; in the assay on MCF7 breast it was above 50 µM; in the assay with OVCAR-5 ovarian, 29.3 µM. The GI50 with SK-MEL-2 melanoma and with SK-MEL-28 melanoma was above 50 µM each time. Besides, the TGI in the assay on A549 NSCLC, with ACHN renal, with DU-145 prostate, in the assay with HCT-15 colon, with MCF7 breast and in the assay with OVCAR-5 ovarian was above 50 µM throughout. Further, the TGI with SK-MEL-2 melanoma and in the assay on SK-MEL-28 melanoma was above 50 µM in each case.

As for `CCOC(=O)c1[nH]c(-c2ccc(Cl)cc2)cc1-c1cccnc1`, the GI50 is 0.812 µM in the assay with A549 NSCLC; 0.714 µM in the assay with ACHN renal; 1.88 µM with DU-145 prostate; 9.46 µM in the assay with HCC-2998 colon; 0.437 µM in the assay with HCT-15 colon; 0.453 µM in the assay on MCF7 breast. Besides, the GI50 was 0.683 µM in the assay on MOLT-4 leukemia, 1.17 µM in the assay with OVCAR-5 ovarian and 0.982 µM in the assay with SK-MEL-28 melanoma. Also, the TGI with A549 NSCLC, in the assay with ACHN renal, with DU-145 prostate, in the assay with HCC-2998 colon, in the assay with HCT-15 colon and in the assay on MCF7 breast was above 100 µM each time. The TGI in the assay with MOLT-4 leukemia, in the assay on OVCAR-5 ovarian and in the assay on SK-MEL-28 melanoma was above 100 µM throughout.

In the case of `NC1CCN(c2nc(Nc3cccc(C(F)(F)F)c3)c3c(=O)[nH]ccc3n2)CC1`, the GI50 with A549 NSCLC is 1.34 µM; in the assay on ACHN renal it was 0.944 µM; in the assay with HCC-2998 colon, 1.6 µM; with HCT-15 colon it was 0.584 µM; in the assay with MCF7 breast, 1.35 µM; in the assay with MOLT-4 leukemia it was 1.05 µM. The GI50 with OVCAR-5 ovarian was 1.68 µM; in the assay with SK-MEL-28 melanoma, 1.82 µM. The TGI in the assay with A549 NSCLC is 2.99 µM; in the assay on ACHN renal, 2.21 µM; in the assay with HCC-2998 colon it was 3 µM; in the assay with HCT-15 colon, 2.26 µM; with MCF7 breast it was 3.02 µM; in the assay on MOLT-4 leukemia, 4.8 µM. Besides, the TGI in the assay with OVCAR-5 ovarian is 3.44 µM; in the assay on SK-MEL-28 melanoma, 3.32 µM.
